Results from the RepoRT retention time repository.

Assay: HILIC, Waters Atlantis Premier BEH Z-HILIC, 100 × 2.1 mm, 1.7 µm, 40 °C, 0.15 mL/min, estimated dead time 1.5 min; A: water + 20 mM ammonium carbonate + 5 µM medronic acid; B: 10% water + 90% acetonitrile + 2 mM ammonium carbonate + 0.5 µM medronic acid; gradient (min/%B) 0/100 18/55 18.1/20 21.5/20 22/100 23.5/100 25.5/100
Conditions: stereoisomer not certain

Q: With O=P(O)(O)OCC1OC(O)(COP(=O)(O)O)C(O)C1O (stereo not given) [Fructose-1,6-bisphosphate] as the compound, how does the LC retention time read?
A: The LC retention time was 16.6 min.

Q: For NC(=O)C1=CN(C2OC(COP(=O)(O)OP(=O)(O)OCC3OC(n4cnc5c(N)ncnc54)C(O)C3O)C(O)C2O)C=CC1 (stereo not given) [NADH], which LC retention time is on record?
A: The LC retention time was 7.99 min.

Q: With O=C(O)C(CO)OP(=O)(O)O (stereo not given) [Phosphoglyceric acid A] as the compound, how does the LC retention time read?
A: The LC retention time was 13.3 min.

Q: With OCC1OC(O)C(O)C(O)C1O (stereo not given) [Hexose] as the compound, how does the LC retention time read?
A: The LC retention time was 6.94 min.

Q: With O=P(O)(O)OCC(O)CO (stereo not given) [Glycerol-3-phosphate] as the compound, how does the LC retention time read?
A: The LC retention time was 9.84 min.

Q: For NC(CCC(=O)O)C(=O)O (stereo not given) [Glutamic acid], which LC retention time is on record?
A: Its LC retention time is 9.29 min.

Q: For C[N+](C)(C)CC(O)CC(=O)[O-] (stereo not given) [Carnitine], which LC retention time is on record?
A: Its LC retention time is 9.95 min.

Q: For NC(=O)CCC(N)C(=O)O (stereo not given) [Glutamine], which LC retention time is on record?
A: Its LC retention time is 10.4 min.

Q: With O=C1CC(C(=O)O)NC(=O)N1 (stereo not given) [dihydroorotic acid] as the compound, how does the LC retention time read?
A: The LC retention time was 4.02 min.

Q: Which LC retention time does the source give for Nc1ncnc2c1ncn2C1OC(CO)C(O)C1O (stereo not given) [Adenosine] here?
A: Its LC retention time is 3.65 min.

Q: Which LC retention time does the source give for NC(=O)C1=CN(C2OC(COP(=O)(O)OP(=O)(O)OCC3OC(n4cnc5c(N)ncnc54)C(OP(=O)(O)O)C3O)C(O)C2O)C=CC1 (stereo not given) [NADPH] here?
A: The LC retention time was 14.7 min.

Q: With Nc1ncnc2c1ncn2C1OC(COP(=O)(O)OP(=O)(O)O)C(O)C1O (stereo not given) [ADP] as the compound, how does the LC retention time read?
A: Its LC retention time is 11.9 min.

Q: Which LC retention time does the source give for O=C(CO)C(O)C(O)C(O)COP(=O)(O)O (stereo not given) [Fructose 6-phosphate] here?
A: The LC retention time was 12 min.

Q: Which LC retention time does the source give for O=P(O)(O)OCC1OC(O)C(O)C(O)C1O (stereo not given) [Glucose-6-phosphate] here?
A: The LC retention time was 12.6 min.

Q: Which LC retention time does the source give for O=C(O)CCC(=O)C(=O)O [2-Oxoglutaric acid] here?
A: The LC retention time was 8.62 min.

Q: Which LC retention time does the source give for O=C(O)CCC(=O)O [Succinic Acid] here?
A: Its LC retention time is 9.39 min.

Q: For CC(O)C(=O)O (stereo not given) [Lactic Acid], which LC retention time is on record?
A: Its LC retention time is 3.36 min.

Q: Which LC retention time does the source give for CC(=O)NC1C(OP(=O)(O)OP(=O)(O)OCC2OC(n3ccc(=O)[nH]c3=O)C(O)C2O)OC(CO)C(O)C1O (stereo not given) [UDP-GlcNAc] here?
A: Its LC retention time is 9.63 min.

Q: Which LC retention time does the source give for Nc1ncnc2c1ncn2C1OC(COP(=O)(O)O)C(O)C1O (stereo not given) [AMP] here?
A: The LC retention time was 8.82 min.

Q: For CCC(C)C(N)C(=O)O (stereo not given) [Isoleucine], which LC retention time is on record?
A: Its LC retention time is 6.3 min.

Q: With O=C(O)CCC(O)C(=O)O (stereo not given) [2-hydroxy glutaric acid] as the compound, how does the LC retention time read?
A: The LC retention time was 9.58 min.

Q: For CCC(=O)OC(CC(=O)[O-])C[N+](C)(C)C (stereo not given) [carnitine-C3], which LC retention time is on record?
A: Its LC retention time is 6.33 min.

Q: With O=C(CO)COP(=O)(O)O [Triose phosphate] as the compound, how does the LC retention time read?
A: The LC retention time was 9.84 min.

Q: Which LC retention time does the source give for O=C(O)CC(C(=O)O)C(O)C(=O)O (stereo not given) [Isocitric acid] here?
A: The LC retention time was 14.5 min.

Q: With Nc1ncnc2c1ncn2C1OC(COP(=O)(O)OP(=O)(O)OP(=O)(O)O)C(O)C1O (stereo not given) [ATP] as the compound, how does the LC retention time read?
A: Its LC retention time is 14.3 min.

Q: With Nc1nc2c(ncn2C2OC(COP(=O)(O)OP(=O)(O)OP(=O)(O)O)C(O)C2O)c(=O)[nH]1 (stereo not given) [GTP] as the compound, how does the LC retention time read?
A: Its LC retention time is 17.1 min.

Q: For Cc1cc2nc3c(=O)[nH]c(=O)nc-3n(CC(O)C(O)C(O)COP(=O)(O)OP(=O)(O)OCC3OC(n4cnc5c(N)ncnc54)C(O)C3O)c2cc1C (stereo not given) [FAD], which LC retention time is on record?
A: Its LC retention time is 7.27 min.

Q: With O=C(O)CCCCC1SCC2NC(=O)NC21 (stereo not given) [Biotin] as the compound, how does the LC retention time read?
A: The LC retention time was 4.6 min.

Q: With C=C(OP(=O)(O)O)C(=O)O [PEP] as the compound, how does the LC retention time read?
A: The LC retention time was 14.4 min.

Q: With NC(=O)c1ccc[n+](C2OC(COP(=O)(O)OP(=O)(O)OCC3OC(n4cnc5c(N)ncnc54)C(O)C3O)C(O)C2O)c1 (stereo not given) [NAD] as the compound, how does the LC retention time read?
A: The LC retention time was 10.5 min.

Q: With NC(=O)c1ccc[n+](C2OC(COP(=O)(O)OP(=O)(O)OCC3OC(n4cnc5c(N)ncnc54)C(OP(=O)(O)O)C3O)C(O)C2O)c1 (stereo not given) [NADP] as the compound, how does the LC retention time read?
A: Its LC retention time is 13.8 min.

Q: For CC(C)(COP(=O)(O)OP(=O)(O)OCC1OC(n2cnc3c(N)ncnc32)C(O)C1OP(=O)(O)O)C(O)C(=O)NCCC(=O)NCCS (stereo not given) [CoenzymeA], which LC retention time is on record?
A: The LC retention time was 11.9 min.

Q: For CC(C)CC(N)C(=O)O (stereo not given) [Leucine], which LC retention time is on record?
A: Its LC retention time is 6.08 min.

Q: For O=C(O)CC(O)(CC(=O)O)C(=O)O [Citric acid], which LC retention time is on record?
A: The LC retention time was 14.7 min.

Q: With CC(=O)SCCNC(=O)CCNC(=O)C(O)C(C)(C)COP(=O)(O)OP(=O)(O)OCC1OC(n2cnc3c(N)ncnc32)C(O)C1OP(=O)(O)O (stereo not given) [Acetyl-CoA] as the compound, how does the LC retention time read?
A: The LC retention time was 9.49 min.
